Values after ≈ are worked out from the molar mass of the structure shown.
Legend:
[1] = Oral bioavailability in Sprague-Dawley rat at 3 mg/kg; assay type: ADME, organism-based; conditions: in vivo
[2] = Cmax in complete freund's adjuvant-induced Lewis rat arthritis model plasma at 3 mg/kg, po qd administered via gavage treated for 7 consecutive days measured after 30 mins post last dose; assay type: ADME, organism-based; design: dose 3 mg/kg, route oral; conditions: in vivo, 0.5 h
[3] = Cmin in complete freund's adjuvant-induced Lewis rat arthritis model plasma at 3 mg/kg, po qd administered via gavage treated for 7 consecutive days measured after 24 hrs post last dose; assay type: ADME, organism-based; conditions: read-out: Cmin
[4] = Volume of distribution at steady state in Sprague-Dawley rat at 1 mg/kg, iv or 3 mg/kg, po; assay type: ADME, organism-based; conditions: in vivo, read-out: Vdss
[5] = Cmax in Sprague-Dawley rat at 3 mg/kg, po; assay type: ADME, organism-based; design: dose 3 mg/kg, route oral; conditions: in vivo
[6] = Cmin in complete freund's adjuvant-induced Lewis rat arthritis model plasma at 30 mg/kg, po qd administered via gavage treated for 7 consecutive days measured after 24 hrs post last dose; assay type: ADME, organism-based; conditions: read-out: Cmin
[7] = Cmin in complete freund's adjuvant-induced Lewis rat arthritis model plasma at 10 mg/kg, po qd administered via gavage treated for 7 consecutive days measured after 24 hrs post last dose; assay type: ADME, organism-based; conditions: read-out: Cmin
[8] = Plasma clearance in Sprague-Dawley rat at 1 mg/kg, iv or 3 mg/kg, po; assay type: ADME, organism-based
[9] = AUC (0 to infinity) in Sprague-Dawley rat at 3 mg/kg, po; assay type: ADME, organism-based; design: dose 3 mg/kg, time infinity, route oral; conditions: in vivo
[10] = Cmax in complete freund's adjuvant-induced Lewis rat arthritis model plasma at 10 mg/kg, po qd administered via gavage treated for 7 consecutive days measured after 30 mins post last dose; assay type: ADME, organism-based; design: dose 10 mg/kg, route oral
[11] = Cmax in complete freund's adjuvant-induced Lewis rat arthritis model plasma at 30 mg/kg, po qd administered via gavage treated for 7 consecutive days measured after 30 mins post last dose; assay type: ADME, organism-based; design: dose 30 mg/kg, route oral
[12] = Drug metabolism in monkey liver microsomes assessed as N-demethylation; assay type: ADME, Macaca mulatta, Microsome; conditions: rhesus monkey
[13] = Unbound intrinsic clearance in human liver microsomes assessed as per mg protein; assay type: ADME, Microsome
[14] = molecular target: T1, Vascular endothelial growth factor receptor 2 (Homo sapiens, UniProt P35968); test: Inhibition of VEGFR2 (unknown origin) by cell based assay
T1 sequence (P35968 whole entry): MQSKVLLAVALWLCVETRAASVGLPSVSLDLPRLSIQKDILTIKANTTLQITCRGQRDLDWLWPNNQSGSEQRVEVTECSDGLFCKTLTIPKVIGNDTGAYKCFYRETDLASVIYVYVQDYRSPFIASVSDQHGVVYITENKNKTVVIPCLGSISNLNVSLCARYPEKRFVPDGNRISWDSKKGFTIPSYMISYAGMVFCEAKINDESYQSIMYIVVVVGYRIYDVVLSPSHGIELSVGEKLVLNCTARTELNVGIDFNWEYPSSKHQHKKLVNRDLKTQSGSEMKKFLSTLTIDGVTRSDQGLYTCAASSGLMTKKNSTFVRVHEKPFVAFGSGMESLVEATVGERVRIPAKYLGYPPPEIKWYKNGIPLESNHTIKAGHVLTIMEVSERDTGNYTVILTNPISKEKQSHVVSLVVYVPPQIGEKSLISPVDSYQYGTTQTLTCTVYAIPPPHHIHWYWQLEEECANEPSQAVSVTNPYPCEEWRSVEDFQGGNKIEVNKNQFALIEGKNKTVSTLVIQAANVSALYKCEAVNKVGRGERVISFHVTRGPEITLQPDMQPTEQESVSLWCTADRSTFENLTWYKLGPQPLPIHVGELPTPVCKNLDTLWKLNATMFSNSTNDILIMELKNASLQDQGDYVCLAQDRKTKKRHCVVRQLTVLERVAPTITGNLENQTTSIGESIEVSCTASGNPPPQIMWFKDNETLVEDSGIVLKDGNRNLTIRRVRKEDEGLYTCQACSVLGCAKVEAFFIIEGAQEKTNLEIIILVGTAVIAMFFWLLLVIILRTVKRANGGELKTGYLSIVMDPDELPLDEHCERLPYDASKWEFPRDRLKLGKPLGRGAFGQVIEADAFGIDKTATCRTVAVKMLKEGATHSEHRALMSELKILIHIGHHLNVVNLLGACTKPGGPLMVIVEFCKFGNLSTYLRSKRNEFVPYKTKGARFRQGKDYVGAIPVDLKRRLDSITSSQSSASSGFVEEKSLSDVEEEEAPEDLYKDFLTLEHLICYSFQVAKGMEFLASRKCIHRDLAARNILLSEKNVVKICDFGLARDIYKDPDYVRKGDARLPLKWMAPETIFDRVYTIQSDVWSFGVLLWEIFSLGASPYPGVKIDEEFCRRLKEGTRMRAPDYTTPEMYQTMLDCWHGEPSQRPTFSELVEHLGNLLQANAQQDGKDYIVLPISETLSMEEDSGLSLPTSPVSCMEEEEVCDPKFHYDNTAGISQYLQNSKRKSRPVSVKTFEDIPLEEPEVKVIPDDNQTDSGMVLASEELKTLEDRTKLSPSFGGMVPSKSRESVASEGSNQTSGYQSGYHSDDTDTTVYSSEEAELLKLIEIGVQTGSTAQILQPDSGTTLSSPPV

[15] = Drug metabolism in monkey liver microsomes assessed as oxidative metabolite formation; assay type: ADME, Macaca mulatta, Microsome; conditions: rhesus monkey
[16] = Drug metabolism in rat liver microsomes assessed as CYP3A4-mediated metabolism; assay type: ADME
[17] = Drug metabolism in human liver microsomes assessed as oxidative metabolite formation; assay type: ADME, Microsome
physchem = conditions: octanol/water phosphate buffer, pH 7.4
[18] = Drug metabolism in human liver microsomes assessed as N-demethylation; assay type: ADME, Microsome
[19] = Drug metabolism in monkey liver microsomes assessed as N-dealkylation; assay type: ADME, Macaca mulatta, Microsome; conditions: rhesus monkey
[20] = Passive apparent permeability from apical to basolateral side in RRCK cells; assay type: ADME, cell-based, Canis lupus familiaris, MDCKII-LE; conditions: dog, MDCK
[21] = Solubility of compound in fasted state simulated intestinal fluid; assay type: physicochemical
[22] = Thermodynamic equilibrium solubility of the compound at pH 7.64 phosphate buffer saline by UPLC analysis; assay type: physicochemical; conditions: read-out: Therm_solubility
[23] = Drug metabolism in monkey liver microsomes assessed as oxidation of N-methy pyrazole; assay type: ADME, Macaca mulatta, Microsome; conditions: rhesus monkey
Cytochrome P450 3A4 = Cytochrome P450 3A4 (Homo sapiens, UniProt P08684); test: Drug metabolism in human liver microsomes assessed as CYP3A4-mediated metabolism; assay type: ADME
Chain of Cytochrome P450 3A4 (P08684 whole entry): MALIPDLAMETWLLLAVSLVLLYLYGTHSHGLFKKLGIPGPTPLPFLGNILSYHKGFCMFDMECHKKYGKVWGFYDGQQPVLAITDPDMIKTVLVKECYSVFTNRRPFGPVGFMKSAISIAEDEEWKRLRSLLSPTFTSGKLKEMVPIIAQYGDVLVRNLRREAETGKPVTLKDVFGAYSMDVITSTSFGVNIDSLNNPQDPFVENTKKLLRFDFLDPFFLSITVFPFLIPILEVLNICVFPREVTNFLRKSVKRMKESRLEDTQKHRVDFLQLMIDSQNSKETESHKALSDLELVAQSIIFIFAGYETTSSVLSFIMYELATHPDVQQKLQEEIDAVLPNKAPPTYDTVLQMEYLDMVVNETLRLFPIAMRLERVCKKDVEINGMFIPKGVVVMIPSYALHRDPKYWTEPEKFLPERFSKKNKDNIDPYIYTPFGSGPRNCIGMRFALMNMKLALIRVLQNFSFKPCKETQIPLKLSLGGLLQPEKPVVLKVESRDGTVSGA

[24] = Drug metabolism in monkey liver microsomes assessed as CYP3A4-mediated metabolism; assay type: ADME, Macaca mulatta; conditions: rhesus monkey
[25] = Drug metabolism in rat liver microsomes assessed as N-demethylation; assay type: ADME, Microsome
[26] = Unbound intrinsic clearance in human hepatocytes assessed as per million cells; assay type: ADME, cell-based, Hepatocyte
[27] = Drug metabolism in human liver microsomes assessed as oxidation of N-methy pyrazole; assay type: ADME, Microsome
[28] = molecular target: T1, Vascular endothelial growth factor receptor 2; test: Inhibition of recombinant human VEGFR2 using Ulight-CAGAGAIETDKEYYTVKD as substrate after 60 mins
[29] = Drug metabolism in rat liver microsomes assessed as oxidative metabolite formation; assay type: ADME, Microsome
[30] = Fraction unbound in human plasma; assay type: ADME, cell-free
[31] = Drug metabolism in rat liver microsomes assessed as oxidation of N-methy pyrazole; assay type: ADME, Microsome
[32] = Drug metabolism in rat liver microsomes assessed as N-dealkylation; assay type: ADME, Microsome
[33] = Solubility of compound in fed state simulated intestinal fluid; assay type: physicochemical
[34] = Fraction unbound in rat plasma; assay type: ADME, cell-free
[35] = Drug metabolism in human liver microsomes assessed as N-dealkylation; assay type: ADME, Microsome

Cc1ccc(S(=O)(=O)O)cc1.Cn1cc(Nc2nccc(N3CC4CC[C@H](C3)N4C(=O)[C@@H]3CC3(F)F)n2)cn1 (single isomer, unassigned)
bioavailability [1]: 83%
Cmax [2]: 3540 nM
concentration at 24 h [3]: 22.1 nM
Vd [4]: 2 L/kg
Cmax [5]: 774 ng/mL
concentration at 24 h [6]: 60 nM
concentration at 24 h [7]: 60 nM
clearance [8]: 31 mL/min/kg
AUC(0-inf) [9]: 1340 ng·h/mL
Cmax [10]: 11000 nM
Cmax [11]: 23900 nM

Cn1cc(Nc2nccc(N3CC4CC[C@H](C3)N4C(=O)[C@@H]3CC3(F)F)n2)cn1 (single isomer, unassigned)
Drug metabolism [12]: Metabolite_Detected
CL free [13]: < 10 µL/min
IC50 [14]: > 30000 nM
Drug metabolism [15]: Metabolite_Detected
Drug metabolism [16]: Metabolite_Detected
Drug metabolism [17]: Metabolite_Detected
logD (physchem): 1.61
Drug metabolism [18]: Metabolite_Detected
Drug metabolism [19]: Metabolite_Detected
Papp A→B [20]: 18.8 ×10⁻⁶ cm/s
solubility [21]: > 7000 µg/mL
solubility thermodynamic [22]: 4840 µg/mL (≈ 12.4 mM)
Drug metabolism [23]: Metabolite_Detected
Drug metabolism (Cytochrome P450 3A4): Metabolite_Detected
Drug metabolism [24]: Metabolite_Detected
Drug metabolism [25]: Metabolite_Detected
CL free [26]: < 0.6 µL/min
Drug metabolism [27]: Metabolite_Detected
IC50 [28]: 1600 nM
Drug metabolism [29]: Metabolite_Detected
fraction unbound [30]: 0.61
Drug metabolism [31]: Metabolite_Detected
Drug metabolism [32]: Metabolite_Detected
solubility [33]: > 7000 µg/mL
fraction unbound [34]: 0.69
Drug metabolism [35]: Metabolite_Detected

Source: ChEMBL document CHEMBL4411260, “Dual Inhibition of TYK2 and JAK1 for the Treatment of Autoimmune Diseases: Discovery of (( S)-2,2-Difluorocyclopropyl)((1 R,5 S)-3-(2-((1-methyl-1 H-pyrazol-4-yl)amino)pyrimidin-4-yl)-3,8-diazabicyclo[3.2.1]octan-8-yl)methanone (PF-06700841)” (J Med Chem, 2018)
